Laboratory results: patent publication US11324832B2, “Tripartite modulators of endosomal G protein-coupled receptors” (Endosome Therapeutics, Inc., priority 2015, dated 2022)
Where a SMILES comes first, the peptide text is derived from it. [ ]: non-standard residue; d: D form. The star is where a group is joined. X1 = CC(C)CCC[C@@H](C)[C@H]1CC[C@H]2[C@@H]3CC[C@H]4C[C@@H](O*)CC[C@]4(C)[C@H]3CC[C@]12C; PEG4 = NCCOCCOCCOCCOCCC(=O)O; PEG3 = NCCOCCOCCOCCC(=O)O

Experiments:
[1] = tested on: NK1R-positive neurons in lamina I of the dorsal horn; experiment: Cell-attached patch clamp recordings in rat spinal cord slices; assay type: cell-based
Experimental: To evaluate whether NK1R endosomal signaling mediates this sustained activation, cell-attached patch clamp recordings were made from NKiR-positive neurons in lamina I of the dorsal horn in slices of rat spinal cord. […] These findings support a role for NK1R endocytosis in persistent neuronal excitation.
Parasagittal slices (340-400 μm) were prepared using a vibratome from the lumbar region of the rat spinal cord in ice-cold sucrose-based artificial CSF (sACSF) (mM: 100 sucrose, 63 NaCl, 2.5 KCl, 1.2 NaH2PO4, 1.2 MgCl2, 25 glucose, 25 NaHCO3; 95% O2/5% CO2). Slices were transferred to N-Methyl-D-Glucamine (NMDG)-based recovery ACSF (rACSF) (mM: 93 NMDG, 93 HCl, 2.5 KCl, 1.2 NaH2PO4, 30 NaHCO3, 20 HEPES, 25 glucose, 5 Na ascorbate, 2 thiourea, 3 Na pyruvate, 10 MgSO4, 0.5 CaCl2; 95% O2/5% CO2, 15 min, 34° C.). Slices were transferred to normal ACSF (mM: 125 NaCl, 2.5 KCl, 1.25 NaH2PO4, 1.2 MgCl2, 2.5 CaCl2, 25 glucose, 11 NaHCO3; 95% O2/5% CO2) containing 10 μM MK-801 (45 min, 34° C.), then maintained at RT.
Slices of rat spinal cord were transferred to a recording chamber and superfused with normal ACSF (2 ml·min^−1, 36° C.). […] PS2 was not soluble in the low concentrations of DMSO required for electrophysiology. Large, NKiR-positive, presumed nociceptive lamina I neurons were visually identified as described (Imlach, W. L., et al., Molecular Pharmacology, 2015, 88, 460-428). Spontaneous currents were recorded in cell-attached configuration (Multiclamp 700B, Molecular Devices, Sunnyvale, Calif.), sampled at 10 kHz, high pass filtered at 1 Hz, and capacitatively coupled action potential events were analyzed using Axograph X, V 1.4.4 (Axograph). Patch electrodes (resistance 2.5-3.5 MQ) contained KMES-based internal solution (mM: 105 KMES, 20 NaCl, 5 HEPES, 10 BAPTA, 1.5 MgCl2, 4 MgATP, 0.4 NaGTP, 0.1% biocytin; 285-295 mosmol·l^−1) to facilitate subsequent recordings of action potential properties in whole-cell configuration. Recordings were made in the presence of CNQX (6-cyano-7-nitroquinoxaline-2,3-dione) (10 μM; AMPA/kainate receptor antagonist), picrotoxin (100 μM; GABAA receptor antagonist), strychnine (0.5 μM; glycine and acetylcholine receptor antagonist), and AP5 ((2R)-amino-5-phosphonovaleric acid; (2R)-amino-5-phosphonopentanoate) (100 μM; NMDA receptor antagonist) to minimize presynaptic influences on action potential properties. […] Recordings were sampled at 10 kHz and filtered with a high pass filter at 1 Hz and firing rate was measured in two-minute interval bins. At the end of each cell-attached recording, whole-cell recordings were made in current-clamp mode to confirm retention of normal action potential firing. Data were only included in the analysis if cells had action potential amplitudes that were ≥50 mV above threshold to ensure viable neurons were included. Cells were filled with biocytin and sections were processed to confirm NK1R expression by immunofluorescence. […] The firing time was determined as the duration of the response to last action potential. To assess synaptic transmission, whole-cell configuration recordings were made under control conditions or after exposure to Dy4 or Dy4 inact; a bipolar stimulating electrode was placed at the dorsal root entry zone, and electrically-evoked excitatory postsynaptic currents recorded as described (Imlach, W. L., et al., Molecular Pharmacology, 2015, 88, 460-428).

[2] = tested on: motor coordination of mice; experiment: Rotarod; assay type: in vivo, mouse; details: i.t. 50 μM
Experimental: Mice were acclimatized by 3 trials on 2 successive days before experiments. Mice were trained to remain on the rotarod for three consecutive periods. On the experimental day, three baseline time trials (cut-off 120 s) were recorded. […] After 30 min, mice were placed on the rotarod with accelerating velocity for up to 120 s. Times were recorded in 3 successive trials, and latency time to fall was determined at 30, 90 and 120 min

[3] = target: NK1R (Rattus norvegicus, UniProt P14600); experiment: BRET of NK1R trafficking (KRas-Venus, Rab5a-Venus) in HEK293 cells; assay type: cell-based; parameters: Full length and truncated 6312 rat HA-NK1R have been described; expressed in transfected cells; host or cells: HEK293 (transient); details: inhibitor plus SP
Experimental: Bioluminescence Resonance Energy Transfer (BRET) was employed to quantitatively assess the proximity of the NK1R to key regulators of GPCR trafficking (βarrs), and resident proteins of plasma (KRas) and early endosomal (Rab5a) membranes in HEK293 cells (FIG. 1A).
HEK293 cells were transfected with the following cDNAs: 1 μg NK1R-RLuc8 or 1 μg CLR-RLuc8+1 μg Myc-RAMP1+4 μg KRas-Venus, 4 μg Rab5a-Venus, 4 μg βarr1-YFP, or 4 μg βarr2-YFP; or 1 μg NK1R+0.5 μg Gαq-RLuc8+1 μg Gβ1+4 μg Gγ2-Venus; or 1 μg NK1R+0.5 μg Gαq-RLuc8+1 μg Gβ1+1 μg Gγ2+4 μg Rab5a-Venus. After 48 h, cells were equilibrated in Hank's balanced salt solution (HBSS) at 37° C., and incubated with the RLuc substrate coelenterazine h (5 μM, 15 min).

[4] = 1 μM for 60 min, washed, 60 min antagonist-free, then SP
[5] = 30 μM, preincubated 10 min, SP 1 μM, 2 min

Chain of NK1R (P14600 whole entry, the tested form may be a part): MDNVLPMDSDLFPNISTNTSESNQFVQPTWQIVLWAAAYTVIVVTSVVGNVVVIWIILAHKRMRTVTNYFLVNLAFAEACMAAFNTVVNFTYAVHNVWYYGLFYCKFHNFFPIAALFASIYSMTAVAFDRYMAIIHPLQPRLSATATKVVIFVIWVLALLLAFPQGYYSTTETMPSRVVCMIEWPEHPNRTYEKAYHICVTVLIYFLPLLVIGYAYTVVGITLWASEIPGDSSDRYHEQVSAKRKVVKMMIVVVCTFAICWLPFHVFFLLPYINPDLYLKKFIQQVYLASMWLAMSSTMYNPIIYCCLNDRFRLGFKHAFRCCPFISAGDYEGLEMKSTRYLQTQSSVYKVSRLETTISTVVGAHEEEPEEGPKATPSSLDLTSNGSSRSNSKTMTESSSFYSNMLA

| SMILES | effect on initial SP-evoked excitation [1, 4] | effect on sustained action potential discharge after SP removal [1, 4] | SP-evoked firing rate, response at 2 min ([1]; 1 μM for 60 min, washed, 60 min antagonist-free, then SP, P>0.05) [events. 2 min^−1] | effect on rotarod latency [2] | effect on SP-induced NK1R endocytosis (BRET KRas-Venus decrease, Rab5a-Venus increase) [3] | effect on initial SP-evoked excitation [1, 5] | effect on sustained action potential discharge after SP removal [1, 5] | effect on glutaminergic primary afferent synaptic transmission and synaptic rundown ([1]; slices of rat spinal cord) |
| --- | --- | --- | --- | --- | --- | --- | --- | --- |
| CC(=O)N[C@@H](CC(=O)O[C@H]1CC[C@@]2(C)[C@@H](CC[C@@H]3[C@@H]2CC[C@]2(C)[C@@H]([C@H](C)CCCC(C)C)CC[C@@H]32)C1)C(=O)NCCOCCOCCOCCOCCC(=O)NCCOCCOCCOCCC(=O)NCCOCCOCCOCCOCCC(=O)N[C@H](CCCNC(=N)N)C(=O)N1CCC[C@H]1C(=O)N[C@@H](CCCCN)C(=O)N1CCC[C@H]1C(=O)N[C@@H](CCC(N)=O)C(=O)N[C@@H](CCC(N)=O)C(=O)N[C@H](Cc1c[nH]c2ccccc12)C(=O)N[C@@H](Cc1ccccc1)C(=O)N[C@H](Cc1c[nH]c2ccccc12)C(=O)N[C@@H](CC(C)C)C(=O)N[C@@H](CC(C)C)C(N)=O [Compound 1] (Ac-D(X1)[PEG4][PEG3][PEG4][dR]PKPQQ[dW]F[dW]LL-NH2) | did not suppress the initial excitation | prevented the action potential discharge | 196.6±81.6 | – | – | – | – | – |
| O=C1NC(=NS(=O)(=O)c2cccc3ccccc23)S/C1=C\c1ccc(Br)cc1 [PS2] | – | – | – | did not affect | blocked | – | – | – |
| O=C(N/N=C/c1cc(O)c(O)cc1O)c1cc2ccccc2cc1O [Dy4] | – | – | – | did not affect | blocked | did not affect the initial excitation | prevented the sustained action potential discharge | did not affect |
